Assay results from patent US20250319115A1, “Compositions and Methods for Modulating Cytokines” (Flagship Pioneering Innovations VII, LLC, priority 2022, published 2025).

Assays:
[1] = system: IL-4 signaling pathway; test: HEK-Blue IL-4 SEAP reporter assay; format: cell-based
Procedure: (§1) The effects of putative inhibitors on pro-inflammatory cytokine pathways are assessed using HEK-Blue cells engineered for the detection of bioactive cytokines via activation of JAK/STAT pathways and subsequent expression of the SEAP reporter gene. Cells are treated with their relevant cytokines+/−peptides or control antibodies, and 20 hours after treatment activation of the relevant cytokine receptor is determined via SEAP expression through mixing cell supernatants with a Quanti-Blue colorimetric reagent and measuring optical density at 600 nm.
Reporter lines HEK-Blue TL-4/TL-15/IFN-alpha were cultured in DMEM with GlutaMAX and 10% HI FBS (Gibco). Cells were seeded into black 96-well optical clear flat-bottomed PhenoPlates at densities of 25000 cells/well and 100 uL/well and allowed to rest overnight in a 37 C incubator with 5% CO2. After 24 hours, cells were treated with 10 μL of their relevant cytokines (StemCell Technologies) at the previously determined EC75 for activation (1.164 ng/mL for HEK-Blue IL-4, 2.26 ng/mL for HEK-Blue IL-15, and 0.456 ng/mL for HEK-Blue IFN-alpha), with or without 10 μL of peptides (5 uM final concentration) or control antibodies (1 ug/well). Cells were kept overnight in a 37 C incubator with 5% C02.
20-22 hours after treatment, 20 μL of the cell supernatants were collected and transferred to 96-well white flat opaque-bottom plates (Costar) and each sample was mixed with 180 μL of Quanti-Blue reagent. Colorimetric reactions were allowed to develop in a 37 C incubator with 5% C02 for a certain duration of time (3 hours for HEK-Blue IL-4, 2 hours for HEK-Blue IL-15, and 1 hour for IFN-alpha). Assay plates were then removed from the incubator and the optical density of each well was measured at 600 nm on a GloMax plate reader. Relative activation of the cytokine signaling pathway in question was determined by ratioing the optical density of each sample to the average optical density for the cytokine-only treated cells from the same plate.

[2] = system: IL-15 signaling pathway; test: HEK-Blue IL-15 SEAP reporter assay; format: cell-based
Procedure: as §1
(§2) Reporter lines HEK-Blue TL-4/TL-15/IFN-alpha were cultured in DMEM with GlutaMAX and 10% HI FBS (Gibco). […] After 24 hours, cells were treated with 10 μL of their relevant cytokines (StemCell Technologies) at the previously determined EC75 for activation (1.164 ng/mL for HEK-Blue IL-4, 2.26 ng/mL for HEK-Blue IL-15, and 0.456 ng/mL for HEK-Blue IFN-alpha), with or without 10 μL of peptides (5 uM final concentration) or control antibodies (1 ug/well). […]
(§3) 20-22 hours after treatment, 20 μL of the cell supernatants were collected and transferred to 96-well white flat opaque-bottom plates (Costar) and each sample was mixed with 180 μL of Quanti-Blue reagent. […] Assay plates were then removed from the incubator and the optical density of each well was measured at 600 nm on a GloMax plate reader. […]

[3] = system: Interferon Regulatory Factor (IRF) pathway; test: Dual Reporter Assay: NF-kB-SEAP and IRF-Lucia luciferase reporter monocyte (THP1) cells +/- TLR agonists; format: cell-based, human
Procedure: (§4) To determine the effect of the Target Protein on TLR activity, the Target Protein, irrelevant proteins, and controls were applied+/−established TLR agonists to a commercial reporter cell line which monitors the two main signal transduction pathways that respond to TLR activation. To determine which primary, human, immune cells are most responsive to the Target Proteins, the Target Proteins were applied to Peripheral Blood Mononuclear Cells (PBMCs) and then 24 hours later the PBMCs were subjected to single cell RNA-seq.
Dual Reporter Assay: NF-kB-SEAP and IRF-Lucia luciferase reporter monocyte (THP1) cells (InvivoGen) are cultured in RPMI 1640 media supplemented with HEPES buffer (10 mM), sodium pyruvate (1 mM), glucose (4.5 g/L), fetal bovine serum (10%), penicillin (100 U/mL), streptomycin ([…]), and 2-mercaptoethanol (0.05 mM). THP1 cells are treated with 100 ng/mL LPS (Sigma-Aldrich) for 24 hrs, the target protein (final conc. 10 μM), or left untreated.
After treatment, THP1 cells are cultured for 24 hrs and then assayed for reporter activity. Both reporter proteins are measurable in the cell culture supernatant when using QUANTI-Blue (InvivoGen), a SEAP detection reagent, and QUANTI-Luc (InvivoGen), a luciferase detection reagent. QUANTI-Blue is a colorimetric enzyme assay developed to determine any alkaline phosphatase activity in a biological sample, such as cell culture supernatant. QUANTI-Luc is a lyophilized assay reagent containing all the components required to quantitatively measure the activity of Lucia Luciferase other coelenterazine-utilizing luciferases. Increased reporter activity after treatment with target protein is observed in cells where the target protein is immune stimulating. Additionally, decreased reporter activity after treatment with the target protein is observed in cells where the target protein is immune dampening.
as §4, with “proteins” for “proteins,”

[4] = system: Peripheral Blood Mononuclear Cells (PBMCs); test: single cell RNA-seq of PBMCs treated with target protein; format: cell-based, human; conditions: 10 μM, 24 hours, vs scrambled protein control
Procedure: as §4
scRNA-seq: From example: Shifts in cell populations after treatment with Target Proteins are assessed by single cell RNA-seq (scRNA-seq). Target proteins (e.g., listed in Table 1) are synthesized through Fluorenylmethyloxycarbonyl (Fmoc) protection group chemistry using Solid Phase Peptide Synthesis (SPPS). […]
Post sequencing, reads are aligned to the human reference genome (GENCODE34/GRCH38). Reads are demultiplexed using DNA-barcoded antibodies and run through quality control (g. doublets are removed, singlet cells are selected with less than 15% mitochondria contamination at RNA levels and reads contain higher than 500 genes). […]
scRNA-seq: From example: Shifts in cell populations after treatment with Target Proteins are assessed by single cell RNA-seq (scRNA-seq). […]

[5] = system: IFN-alpha signaling pathway; test: HEK-Blue IFN-alpha SEAP reporter assay; format: cell-based
Procedure: as §1, §2, §3

[6] = peptide 5 uM, cytokine at EC75, SEAP OD 600 nm
[7] = THP-1 dual reporter cells, protein 10 μM vs scramble protein, 24 hours

## SEQ ID NO: 1238_L8V: novel peptide capable of inhibiting pro-inflammatory cytokine pathways (LVVRWAVVVFRSSTAALPRAAEAARRSEKWPKTSALGRRS; listed as Homo sapiens)
[1]; FIG. 9
  inhibitor of the IL-4 signaling pathway (grade in words): strong
[2]; [6]
  Relative activity (compared to cytokine only controls), Cytokine IL-15: −70%

## SEQ ID NO: 6091: novel peptide capable of inhibiting pro-inflammatory cytokine pathways (IFLFLPIFSFPQIFLLLFYHLE; listed as Homo sapiens)
[1]; [6]
  Relative activity (compared to cytokine only controls), Cytokine IL-4: −40%
[2]; FIG. 10
  inhibitor of the IL-15 signaling pathway (grade in words): strong inhibitor

## SEQ ID NO: 6516: novel, secreted peptide that inhibits the innate immune response caused by toll-like receptor agonists (MAAPSNKTELAWSPRLAA; listed as Homo sapiens)
[3]; THP-1 dual reporter cells, peptide 0, 2.5, 5, 7.5, and 10 μM in the presence of LPS, 24 hours
  relative IRF activity (reporter gene expression): inhibition
[3]; [7]
  IRF response, co-treated with TLR1/2 agonist: inhibited
  IRF response, co-treated with TLR2 agonist: no significant effect
  IRF response, co-treated with TLR3 agonist: no significant effect
  IRF response, co-treated with TLR4 agonist: inhibited
  IRF response, co-treated with TLR5 agonist: no significant effect
  IRF response, co-treated with TLR6/2 agonist: inhibited
  IRF response, co-treated with TLR7 agonist: no significant effect
  IRF response, co-treated with TLR8 agonist: no significant effect
  IRF response, co-treated with TLR9 agonist: no significant effect
[3]; reporter cell line +/- TLR agonists
  IRF signal transduction pathway response from several TLRs: significantly blocks
[4]
  effect on T-cells, B-cells, and NK-cells (up/downregulated genes, scRNA-seq): relatively small effects
  effect on active monocytes and dendritic cells (up/downregulated genes, scRNA-seq): strongly affected

## SEQ ID NO: 3915: novel peptide capable of activating the signaling pathway for IFN-alpha (LRRAIWGLLCLMVAEENQEASLRKLAVRRKFWRLGRATQRYSVAW; listed as Homo sapiens)
[5]; FIG. 11
  activator of the IFN-alpha signaling pathway (grade in words): moderate activator
[5]; [6]
  Relative activity (compared to cytokine only controls), Cytokine IFN-a: +40%
